Test results as given in PMC5786306, “An AKAP-Lbc-RhoA interaction inhibitor promotes the translocation of aquaporin-2 to the plasma membrane of renal collecting duct principal cells” (PLoS ONE, 2018).
Several values for one entry are separate records, joined by “and”; a condition that tells them apart may be missing. Identical values can stand only once.

Key:
[1] = target: T1, 647-RhoA (Homo sapiens, UniProt P61586); test: Microscale thermophoresis (MST) with 647-RhoA; assay type: binding
T1 construct: made in house
Procedure: (§1) The final concentration of GFP-AKAP-Lbc/DHPH was set to 150 nM, 95% LED and 80% MST laser power. […] The samples were incubated in the dark for 1 h incubation at room temperature, and measured with 30 sec laser-on and 5 sec laser-off time at a Monolith NT.115 device (NanoTemper). Measured fluorescence (F) was normalised (Fhot/Fcold = Fsteady state/Finitial state, Fig 3). Values of thermophoresis + T-jump were related to average of each measurement row (16 capillaries). Final values are given as ‰.
(§2) Fig 4 The Scaff10 derivative Scaff10-8 binds to RhoA but not to the DHPH domain of AKAP-Lbc. (A-D) Microscale thermophoresis (MST) takes advantage of the phenomenon of directed movement of particles in a temperature gradient. Binding events lead to changes in the hydration shell of biomolecules and a relative change of movement of the molecular complex along a temperature gradient. Using such changes, binding affinities can be determined. MST assays were carried out with (A) the recombinant DHPH domain of AKAP-Lbc fused with GFP and RhoA as a ligand and (B) fluorescent 647-RhoA and the His-tagged AKAP-Lbc/DHPH domain as a ligand. (C) MST assays for the analysis of the binding of Scaff10-8 to 647-RhoA. Upper panels: The concentration of fluorescent 647-RhoA remained constant and Scaff10-8 (left) and Scaff10-7 as a negative control (right) were titrated in increasing concentrations. Lower panels: Values of fluorescence corresponding to upper panels. (D) MST assay showing no binding of Scaff10-8 or Scaff10-7 to GFP-DHPH. Upper panels: The concentration of fluorescent GFP-AKAP-Lbc/DHPH remained constant and Scaff10-8 (left) and Scaff10-7 (right) were titrated in increasing concentrations. Lower panels: Values of fluorescence corresponding to upper panels. […] F norm = normalized fluorescence (fluorescence steady state/fluorescence initial state) indicated in ‰. n = 3–5. Mean ± SEM. […] The ligand protein named in each panel heading is used as the substance label, and it is uncertain whether these count as substances.

[2] = target: T2, GFP-AKAP-Lbc/DHPH (Homo sapiens, UniProt Q12802); test: Microscale thermophoresis (MST) with GFP-AKAP-Lbc/DHPH; assay type: binding; settings: result in words
T2 construct: His6-AKAP-Lbc/DHPH (aa 1972–2342 of human AKAP-Lbc; NP_006729.4); made in house; host or cells: HEK293-EBNA cells (transient transfection, pTT5)
T2 sequence (Q12802 1972-2342 isoform Q12802-2): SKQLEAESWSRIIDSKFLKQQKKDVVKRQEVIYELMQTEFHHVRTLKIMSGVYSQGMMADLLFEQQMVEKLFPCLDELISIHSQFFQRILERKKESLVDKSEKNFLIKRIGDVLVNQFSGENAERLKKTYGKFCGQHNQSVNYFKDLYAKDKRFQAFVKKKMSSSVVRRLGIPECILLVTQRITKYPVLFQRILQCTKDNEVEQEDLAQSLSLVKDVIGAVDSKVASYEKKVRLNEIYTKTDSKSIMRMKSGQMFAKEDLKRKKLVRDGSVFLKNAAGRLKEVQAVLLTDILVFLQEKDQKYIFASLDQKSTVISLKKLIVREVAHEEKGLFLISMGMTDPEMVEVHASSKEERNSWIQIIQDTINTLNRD
Procedure: as §1, §2

[3] = test system: IMCD, MCD4, HEK293, MCF7 and H9C2 cells; test: MTS cytotoxicity assay; assay type: cell-based, rat, mouse, human; settings: 3–100 μM, 24–72 h
Procedure: The potential cytotoxicity of Scaff10-8 on primary IMCD and several permanent cell lines (MCF7, H9C2, HEK293, MCD4) was assessed using the tetrazolium compound-based CellTiter 96 AQueous One Solution Cell Proliferation (3-(4,5-dimethylthiazol-2-yl)-5-(3-carboxymethoxyphenyl)-2-(4-sulfophenyl)-2H-tetrazolium) (MTS) assay according to the instructions of the manufacturer. In brief, the cells were seeded into 96 well plates (5,000 cells per well) and cultured in their appropriate medium Scaff10-8 (100 μM, 30 μm and 3 μm, 0.3% final DMSO concentration) were added, DMSO (0.3%) was included as a control. Staurosporine (1 μM) was included as a positive control. All conditions were tested in quadruplicate. At the indicated time points, the MTS reagent was added. Absorption was determined 4 h after addition of MTS reagent at 450 nm wavelength. The MST reagent absorbance at 450 nm is proportional to the amount of living cells. A blank measurement determined the medium absorption (background). Values were normalized to untreated cells after 24 h for each cell line.
Fig 6 Scaff10-8 is not cytotoxic. […] (B) Cytotoxicity was assessed after 24–72 h of incubation with Scaff10-8 (3, 30, 100 μM). […] Absorption was determined at 450 nm and was related to medium absorption (blank). […] Statistically significant differences were determined applying one-way ANOVA with posthoc Bonferroni. […]

T1 sequence (P61586 whole entry): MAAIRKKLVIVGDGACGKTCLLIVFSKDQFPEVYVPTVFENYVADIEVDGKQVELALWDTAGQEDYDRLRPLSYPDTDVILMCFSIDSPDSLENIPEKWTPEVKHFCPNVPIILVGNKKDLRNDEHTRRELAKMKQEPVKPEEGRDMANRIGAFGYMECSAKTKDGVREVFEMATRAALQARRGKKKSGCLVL

| Compound | binding to 647-RhoA ([1]; result in words) | binding to GFP-AKAP-Lbc/DHPH [2] | Kd ([1]; KD for binding to 647-RhoA, mean ± SEM, n = 3–5) | viability of cells (MTS) [3] |
| --- | --- | --- | --- | --- |
| CCOC(=O)CCc1c(C)c2ccc(OCC(=O)c3ccc(OC)cc3)cc2oc1=O [Scaff10-7, Ethyl 3-[7-[2-(4-methoxyphenyl)-2-oxo-ethoxy]-4-methyl-2-oxo-chromen-3-yl]propanoate] | did not bind | no binding |  |  |
| COc1ccc(-c2coc3cc4oc(=O)c(CCC(=O)O)c(C)c4cc23)cc1 [Scaff10-8, 3-[3-(4-Methoxyphenyl)-5-methyl-7-oxo-furo[3,2-g]chromen-6-yl] propanoic acid] |  | no binding | 20 µM and 20.2 µM | did not influence the viability |
